# Measured values reported in US11168364B2, “Method and system for sequencing nucleic acids” (priority 2016, dated 2021).
# Biological target: T1, Bsu DNA polymerase large fragment / primed template nucleic acid (Bacillus subtilis, UniProt O34996)
# T1 construct: 350 U/ml Bsu DNA polymerase large fragment
# T1 sequence (O34996 297-880 limits assumed): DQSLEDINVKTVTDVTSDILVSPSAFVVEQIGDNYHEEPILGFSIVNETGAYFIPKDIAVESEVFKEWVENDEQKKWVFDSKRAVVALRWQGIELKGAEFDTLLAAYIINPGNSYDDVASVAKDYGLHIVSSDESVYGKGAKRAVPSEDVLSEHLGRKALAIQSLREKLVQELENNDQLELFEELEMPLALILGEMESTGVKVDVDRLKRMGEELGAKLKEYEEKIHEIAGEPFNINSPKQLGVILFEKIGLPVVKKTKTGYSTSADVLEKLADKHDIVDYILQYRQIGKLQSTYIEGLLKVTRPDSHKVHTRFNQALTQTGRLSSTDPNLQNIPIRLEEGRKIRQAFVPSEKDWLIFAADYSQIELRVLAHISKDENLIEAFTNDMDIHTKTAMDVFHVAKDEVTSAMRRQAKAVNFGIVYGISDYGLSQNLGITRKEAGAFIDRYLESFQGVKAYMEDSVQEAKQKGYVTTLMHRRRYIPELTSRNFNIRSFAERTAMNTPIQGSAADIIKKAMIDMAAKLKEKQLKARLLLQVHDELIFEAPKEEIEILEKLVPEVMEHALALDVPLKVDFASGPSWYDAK
# Experiment: Biolayer interferometry of polymerase binding to immobilized primed template with cognate or non-cognate nucleotide, salt titration (Example 19)
# Details: for Ternary Complex Signal (Δλ, nm): dCTP (cognate); for Binary Complex Signal (Δλ, nm): dGTP (non-cognate)
# Text: A FORTEBIO® (Menlo Park, Calif.) OCTET® instrument employing biolayer interferometry to measure binding reactions at the surface of a fiber optic tip was used in a multiwell plate format to investigate differential stability of binary and ternary complexes. Template strands biotinylated at their 5′-ends were used to immobilize the primed template nucleic acid onto fiber optic tips functionalized with streptavidin (SA) according to standard procedures. […] Tips were first equilibrated in a Tris-buffered solution containing 30 mM Tris-HCl (pH 8.0), and 0.1 mM EDTA before commencing the cycling protocol. Independent binding reactions for the two test nucleotides (i.e., cognate and non-cognate nucleotides) were carried out in the presence of concentrations of NaCl, KCl, or potassium glutamate that varied from 50 mM to 500 mM. […] In all instances, the reaction mixture used during the examination step contained Tris-HCl (pH 8.0), 0.01% Tween-20, 100 μg/ml BSA, 2 mM NiSO4, 350 U/ml Bsu DNA polymerase large fragment; and one of the nucleotides at a concentration of 100 μM (dCTP was used as a cognate nucleotide, and dGTP was used as a non-cognate nucleotide). Following each examination step, tips were exposed to a buffer containing 30 mM Tris-HCl (pH 8.0), 500 mM KCl, 2 mM EDTA and 0.05% Tween-20 for 20 seconds to strip enzyme complexes from the primed template nucleic acid. The stripping step was followed by a 15 second exposure to examination buffer without enzyme, dNTP or divalent cations to regenerate tips for the next cycle of examination. When using a single contacting step to effect binding of polymerase and nucleotide to the primed template nucleic acid, the binding step was 45 seconds long, with binding interactions being monitored continuously. This was accomplished by contacting the primed template nucleic acid with a single solution that included the polymerase and test nucleotide. Results from interferometry monitoring were analyzed to identify formation of ternary complexes (i.e., identifying cognate nucleotide) or binary complexes (i.e., identifying non-cognate nucleotide).
structure (smiles),measurement,setting,value
"N[C@@H](CCC(=O)[O-])C(=O)[O-].[K+].[K+] [Potassium Glutamate, potassium glutamate]",Fold Enhancement (Ternary/Binary),Potassium glutamate 50 mM,1.05
same,"Ternary Complex Signal (Δλ, nm)",Potassium glutamate 50 mM,1.67 nm
same,"Binary Complex Signal (Δλ, nm)",Potassium glutamate 50 mM,1.59 nm
same,Fold Enhancement (Ternary/Binary),Potassium glutamate 75 mM,1.01
same,"Ternary Complex Signal (Δλ, nm)",Potassium glutamate 75 mM,1.69 nm
same,"Binary Complex Signal (Δλ, nm)",Potassium glutamate 75 mM,1.68 nm
same,Fold Enhancement (Ternary/Binary),Potassium glutamate 100 mM,1.02
same,"Ternary Complex Signal (Δλ, nm)",Potassium glutamate 100 mM,1.67 nm
same,"Binary Complex Signal (Δλ, nm)",Potassium glutamate 100 mM,1.64 nm
same,Fold Enhancement (Ternary/Binary),Potassium glutamate 125 mM,1.05
same,"Ternary Complex Signal (Δλ, nm)",Potassium glutamate 125 mM,1.65 nm
same,"Binary Complex Signal (Δλ, nm)",Potassium glutamate 125 mM,1.57 nm
same,Fold Enhancement (Ternary/Binary),Potassium glutamate 150 mM,1.07
same,"Ternary Complex Signal (Δλ, nm)",Potassium glutamate 150 mM,1.62 nm
same,"Binary Complex Signal (Δλ, nm)",Potassium glutamate 150 mM,1.51 nm
same,Fold Enhancement (Ternary/Binary),Potassium glutamate 175 mM,1.08
same,"Ternary Complex Signal (Δλ, nm)",Potassium glutamate 175 mM,1.56 nm
same,"Binary Complex Signal (Δλ, nm)",Potassium glutamate 175 mM,1.44 nm
same,Fold Enhancement (Ternary/Binary),Potassium glutamate 200 mM,1.07
same,"Ternary Complex Signal (Δλ, nm)",Potassium glutamate 200 mM,1.51 nm
same,"Binary Complex Signal (Δλ, nm)",Potassium glutamate 200 mM,1.40 nm
same,Fold Enhancement (Ternary/Binary),Potassium glutamate 225 mM,1.11
same,"Ternary Complex Signal (Δλ, nm)",Potassium glutamate 225 mM,1.53 nm
same,"Binary Complex Signal (Δλ, nm)",Potassium glutamate 225 mM,1.38 nm
same,Fold Enhancement (Ternary/Binary),Potassium glutamate 250 mM,1.17
same,"Ternary Complex Signal (Δλ, nm)",Potassium glutamate 250 mM,1.48 nm
same,"Binary Complex Signal (Δλ, nm)",Potassium glutamate 250 mM,1.27 nm
same,Fold Enhancement (Ternary/Binary),Potassium glutamate 275 mM,1.22
same,"Ternary Complex Signal (Δλ, nm)",Potassium glutamate 275 mM,1.52 nm
same,"Binary Complex Signal (Δλ, nm)",Potassium glutamate 275 mM,1.24 nm
same,Fold Enhancement (Ternary/Binary),Potassium glutamate 300 mM,1.23
same,"Ternary Complex Signal (Δλ, nm)",Potassium glutamate 300 mM,1.50 nm
same,"Binary Complex Signal (Δλ, nm)",Potassium glutamate 300 mM,1.23 nm
same,Fold Enhancement (Ternary/Binary),Potassium glutamate 325 mM,1.27
same,"Ternary Complex Signal (Δλ, nm)",Potassium glutamate 325 mM,1.46 nm
same,"Binary Complex Signal (Δλ, nm)",Potassium glutamate 325 mM,1.15 nm
same,Fold Enhancement (Ternary/Binary),Potassium glutamate 350 mM,1.30
same,"Ternary Complex Signal (Δλ, nm)",Potassium glutamate 350 mM,1.39 nm
same,"Binary Complex Signal (Δλ, nm)",Potassium glutamate 350 mM,1.07 nm
same,Fold Enhancement (Ternary/Binary),Potassium glutamate 375 mM,1.32
same,"Ternary Complex Signal (Δλ, nm)",Potassium glutamate 375 mM,1.36 nm
same,"Binary Complex Signal (Δλ, nm)",Potassium glutamate 375 mM,1.03 nm
same,Fold Enhancement (Ternary/Binary),Potassium glutamate 400 mM,1.36
same,"Ternary Complex Signal (Δλ, nm)",Potassium glutamate 400 mM,1.36 nm
same,"Binary Complex Signal (Δλ, nm)",Potassium glutamate 400 mM,0.99 nm
same,Fold Enhancement (Ternary/Binary),Potassium glutamate 425 mM,1.46
same,"Ternary Complex Signal (Δλ, nm)",Potassium glutamate 425 mM,1.33 nm
same,"Binary Complex Signal (Δλ, nm)",Potassium glutamate 425 mM,0.91 nm
same,Fold Enhancement (Ternary/Binary),Potassium glutamate 450 mM,1.52
same,"Ternary Complex Signal (Δλ, nm)",Potassium glutamate 450 mM,1.31 nm
same,"Binary Complex Signal (Δλ, nm)",Potassium glutamate 450 mM,0.86 nm
same,Fold Enhancement (Ternary/Binary),Potassium glutamate 475 mM,1.56
same,"Ternary Complex Signal (Δλ, nm)",Potassium glutamate 475 mM,1.28 nm
same,"Binary Complex Signal (Δλ, nm)",Potassium glutamate 475 mM,0.82 nm
same,Fold Enhancement (Ternary/Binary),Potassium glutamate 500 mM,1.60
same,"Ternary Complex Signal (Δλ, nm)",Potassium glutamate 500 mM,1.28 nm
same,"Binary Complex Signal (Δλ, nm)",Potassium glutamate 500 mM,0.80 nm
[Cl-].[Na+] [NaCl],Fold Enhancement (Ternary/Binary),NaCl 50 mM,1.07
same,"Ternary Complex Signal (Δλ, nm)",NaCl 50 mM,3.33 nm
same,"Binary Complex Signal (Δλ, nm)",NaCl 50 mM,3.11 nm
same,Fold Enhancement (Ternary/Binary),NaCl 75 mM,1.10
same,"Ternary Complex Signal (Δλ, nm)",NaCl 75 mM,2.77 nm
same,"Binary Complex Signal (Δλ, nm)",NaCl 75 mM,2.51 nm
same,Fold Enhancement (Ternary/Binary),NaCl 100 mM,1.07
same,"Ternary Complex Signal (Δλ, nm)",NaCl 100 mM,2.34 nm
same,"Binary Complex Signal (Δλ, nm)",NaCl 100 mM,2.17 nm
same,Fold Enhancement (Ternary/Binary),NaCl 125 mM,1.04
same,"Ternary Complex Signal (Δλ, nm)",NaCl 125 mM,1.99 nm
same,"Binary Complex Signal (Δλ, nm)",NaCl 125 mM,1.91 nm
same,Fold Enhancement (Ternary/Binary),NaCl 150 mM,1.04
same,"Ternary Complex Signal (Δλ, nm)",NaCl 150 mM,1.73 nm
same,"Binary Complex Signal (Δλ, nm)",NaCl 150 mM,1.67 nm
same,Fold Enhancement (Ternary/Binary),NaCl 175 mM,1.11
same,"Ternary Complex Signal (Δλ, nm)",NaCl 175 mM,1.51 nm
same,"Binary Complex Signal (Δλ, nm)",NaCl 175 mM,1.36 nm
same,Fold Enhancement (Ternary/Binary),NaCl 200 mM,1.19
same,"Ternary Complex Signal (Δλ, nm)",NaCl 200 mM,1.36 nm
same,"Binary Complex Signal (Δλ, nm)",NaCl 200 mM,1.15 nm
same,Fold Enhancement (Ternary/Binary),NaCl 225 mM,1.27
same,"Ternary Complex Signal (Δλ, nm)",NaCl 225 mM,1.28 nm
same,"Binary Complex Signal (Δλ, nm)",NaCl 225 mM,1.01 nm
same,Fold Enhancement (Ternary/Binary),NaCl 250 mM,1.47
same,"Ternary Complex Signal (Δλ, nm)",NaCl 250 mM,1.18 nm
same,"Binary Complex Signal (Δλ, nm)",NaCl 250 mM,0.80 nm
same,Fold Enhancement (Ternary/Binary),NaCl 275 mM,1.65
same,"Ternary Complex Signal (Δλ, nm)",NaCl 275 mM,1.11 nm
same,"Binary Complex Signal (Δλ, nm)",NaCl 275 mM,0.67 nm
same,Fold Enhancement (Ternary/Binary),NaCl 300 mM,1.86
same,"Ternary Complex Signal (Δλ, nm)",NaCl 300 mM,0.99 nm
same,"Binary Complex Signal (Δλ, nm)",NaCl 300 mM,0.53 nm
same,Fold Enhancement (Ternary/Binary),NaCl 325 mM,2.76
same,"Ternary Complex Signal (Δλ, nm)",NaCl 325 mM,0.93 nm
same,"Binary Complex Signal (Δλ, nm)",NaCl 325 mM,0.34 nm
same,Fold Enhancement (Ternary/Binary),NaCl 350 mM,2.94
same,"Ternary Complex Signal (Δλ, nm)",NaCl 350 mM,0.74 nm
same,"Binary Complex Signal (Δλ, nm)",NaCl 350 mM,0.25 nm
same,Fold Enhancement (Ternary/Binary),NaCl 375 mM,3.62
same,"Ternary Complex Signal (Δλ, nm)",NaCl 375 mM,0.61 nm
same,"Binary Complex Signal (Δλ, nm)",NaCl 375 mM,0.17 nm
same,"Ternary Complex Signal (Δλ, nm)",NaCl 400 mM,0.48 nm
same,"Binary Complex Signal (Δλ, nm)",NaCl 400 mM,0.08 nm
same,Fold Enhancement (Ternary/Binary),NaCl 425 mM,5.16
same,"Ternary Complex Signal (Δλ, nm)",NaCl 425 mM,0.38 nm
same,"Binary Complex Signal (Δλ, nm)",NaCl 425 mM,0.07 nm
same,Fold Enhancement (Ternary/Binary),NaCl 450 mM,6.65
same,"Ternary Complex Signal (Δλ, nm)",NaCl 450 mM,0.26 nm
same,"Binary Complex Signal (Δλ, nm)",NaCl 450 mM,0.04 nm
same,Fold Enhancement (Ternary/Binary),NaCl 475 mM,10.28
same,"Ternary Complex Signal (Δλ, nm)",NaCl 475 mM,0.19 nm
same,"Binary Complex Signal (Δλ, nm)",NaCl 475 mM,0.02 nm
same,"Ternary Complex Signal (Δλ, nm)",NaCl 500 mM,0.21 nm
same,"Binary Complex Signal (Δλ, nm)",NaCl 500 mM,0.00 nm
